# Reference: patent publication US4364953A, “2-0- and 5-0-Substituted 1.4;3.6-dianhydrohexitol mononitrates and pharmaceutical composition” (Firma Willmar Schwabe, priority 1980, dated 1982)
# Where two headings read alike, the source gives them in different places.
# Assays:
# [1] = tested on: isolated guinea pig hearts; experiment: Experiments on the Langendorff heart (isolated guinea pig hearts); conditions: Cavia porcellus, 25 μg./ml. test substance in 50 ml. tyrode solution, average of 3-6 hearts
# in vivo = conditions: mouse, iv, Evaluated LD50 -range, mice, as hydrochloride
# Procedure: (§1) The compounds were injected to at least 3 animals per dose. If no animal had yet been died following to the highest dose which was administered, no more doses of substances were tested. In case of doubt, the examination was repeated with at least 3 more animals applying the same dose.
# (§2) The rate of death within 24 hours after administration was observed.
# female NMRI-albino mice = experiment: Acute toxicity, intravenous, female NMRI-albino mice; conditions: for Frequency of death with an intravenous dose of 100 mg/kg: 100 mg/kg i.v. as hydrochloride in physiological saline; for Frequency of death with an intravenous dose of 100 mg/kg / Frequency of death with an intravenous dose of 200 mg/kg: death within 24 hours, dead/treated; for Frequency of death with an intravenous dose of 200 mg/kg: 200 mg/kg i.v. as hydrochloride in physiological saline
# Procedure: as §1, §2
# narcotised guinea pigs = experiment: Blood pressure experiments on the narcotised guinea pig (i.v.); conditions: for blood pressure afterwards: after administration; for blood pressure previously: before administration (baseline); for blood pressure-lowering effectiveness compared with ISMN and ISDN: in words, guinea pig i.v., Table III
# mongrel cats = experiment: Heart-circulation effectiveness in narcotised mongrel cats, intraduodenal administration; conditions: 5 mg/kg intraduodenal, cat
# Procedure: The animals were narcotised with a mixture of chloralose-urethane (1.2 g./kg. urethane+40 mg./kg chloralose administered i.p.). They breathed spontaneously through a tracheal canula. The A. carotis was used in order to place a catheter tip manometer in the left heart chamber. The V. jugularis served for injection purposes. Via the A. femoralis, a catheter was inserted into the Aorta descendans and attached to a pressure recorder (Statham P 23 Db). The heart frequency was recorded with a pulse frequency measurer (firm Hugo Sachs Elektronik) from the left ventricular pressure signal. A duodenal loop was exposed by laparotomy. The substances to be tested were injected directly into the lumen.
# [2] = tested on: isolated rat aorta preparations
# Source text: Here, too, ISDN and ISMN were chosen as comparison compounds.
# [3] = read-out: flowthrough, percentage change in comparison with the initial value
# [4] = read-out: frequency, percentage change in comparison with the initial value
# [5] = read-out: inotropism, percentage change in comparison with the initial value
# [6] = 0 min (baseline), average ± standard error, 6 animals
# [7] = read-out: noradrenaline spasm, […]
# [8] = read-out: potassium chloride spasm, […]
structure (smiles),measurement,setting,value
"O=C(O[C@@H]1CO[C@H]2[C@@H]1OC[C@@H]2O[N+](=O)[O-])c1cccnc1 [Example 5b, 1.4;3.6-Dianhydro-D-glucitol 2-nitrate 5-nicotinate]",activation at 25 µg/mL,[1]; [3],23.6%
same,activation at 25 µg/mL,[1]; [4],-9.13%
same,activation at 25 µg/mL,[1]; [5],15.8%
same,LD50 at 24 h,in vivo,> 100 mg/kg
same,Frequency of death with an intravenous dose of 100 mg/kg,female NMRI-albino mice,0/6
same,blood pressure Δ,narcotised guinea pigs; 0.25 mg/kg i.v.,-7.70 mm.Hg
same,blood pressure afterwards,narcotised guinea pigs; 0.25 mg/kg i.v.,55.00 ± 1.00 mm.Hg
same,blood pressure previously,narcotised guinea pigs; 0.25 mg/kg i.v.,62.70 ± 3.00 mm.Hg
same,blood pressure Δ,narcotised guinea pigs; 1.00 mg/kg i.v.,-18.00 mm.Hg
same,blood pressure afterwards,narcotised guinea pigs; 1.00 mg/kg i.v.,44.30 ± 0.90 mm.Hg
same,blood pressure previously,narcotised guinea pigs; 1.00 mg/kg i.v.,62.30 ± 4.10 mm.Hg
same,blood pressure Δ,narcotised guinea pigs; 2.50 mg/kg i.v.,-28.00 mm.Hg
same,blood pressure afterwards,narcotised guinea pigs; 2.50 mg/kg i.v.,33.30 ± 0.70 mm.Hg
same,blood pressure previously,narcotised guinea pigs; 2.50 mg/kg i.v.,61.30 ± 4.90 mm.Hg
same,blood pressure-lowering effectiveness compared with ISMN and ISDN,narcotised guinea pigs,actions similar to those of ISDN
same,blood pressure,mongrel cats; [6],123.5 ± 7.3 mm.Hg
same,dp/dt (inotropism),mongrel cats; [6],10625 ± 2083 mm.sec.
same,heart frequency,mongrel cats; [6],211.5 ± 19.3 min⁻¹
same,blood pressure,mongrel cats; 10 min after admin.,98.3 ± 6.2 mm.Hg
same,dp/dt (inotropism),mongrel cats; 10 min after admin.,8050 ± 1204 mm.sec.
same,heart frequency,mongrel cats; 10 min after admin.,209.5 ± 19.2 min⁻¹
same,blood pressure Δ,mongrel cats; 10 min versus 0 min,-25.2 mm.Hg
same,dp/dt Δ,mongrel cats; 10 min versus 0 min,-2575 mm.sec.
same,blood pressure,mongrel cats; 30 min after admin.,94.8 ± 7.2 mm.Hg
same,dp/dt (inotropism),mongrel cats; 30 min after admin.,7975 ± 1216 mm.sec.
same,heart frequency,mongrel cats; 30 min after admin.,212.5 ± 21.6 min⁻¹
same,blood pressure Δ,mongrel cats; 30 min versus 0 min,-28.7 mm.Hg
same,dp/dt Δ,mongrel cats; 30 min versus 0 min,-2650 mm.sec.
same,blood pressure,mongrel cats; 60 min after admin.,93.8 ± 7.8 mm.Hg
same,dp/dt (inotropism),mongrel cats; 60 min after admin.,8275 ± 309 mm.sec.
same,heart frequency,mongrel cats; 60 min after admin.,225.0 ± 16.2 min⁻¹
same,blood pressure Δ,mongrel cats; 60 min versus 0 min,-29.7 mm.Hg
same,dp/dt Δ,mongrel cats; 60 min versus 0 min,-2350 mm.sec.
same,blood pressure,mongrel cats; 120 min after admin.,101.3 ± 11.2 mm.Hg
same,dp/dt (inotropism),mongrel cats; 120 min after admin.,7500 ± 1022 mm.sec.
same,heart frequency,mongrel cats; 120 min after admin.,228.0 ± 15.6 min⁻¹
same,blood pressure Δ,mongrel cats; 120 min versus 0 min,-22.2 mm.Hg
same,dp/dt Δ,mongrel cats; 120 min versus 0 min,-3125 mm.sec.
same,IC50,[2]; [7],6.2 µM
same,IC50,[2]; [8],22.5 µM
"O=C(O[C@@H]1CO[C@H]2[C@@H]1OC[C@H]2O[N+](=O)[O-])c1cccnc1 [Example 8, 1.4;3.6-Dianhydro-D-mannitol 2-nitrate 5-nicotinate]",LD50 at 24 h,in vivo,< 200 mg/kg
same,Frequency of death with an intravenous dose of 100 mg/kg,female NMRI-albino mice,0/6
same,Frequency of death with an intravenous dose of 200 mg/kg,female NMRI-albino mice,3/3
same,Evaluated LD50 -range,"female NMRI-albino mice; i.v., mice, as hydrochloride, 24 hours, 1440 min",> 100 mg/kg
"CS(=O)(=O)O[C@@H]1CO[C@H]2[C@@H]1OC[C@@H]2O[N+](=O)[O-] [Example 4, 1.4;3.6-Dianhydro-D-glucitol 2-nitrate 5-methanesulphonate]",activation at 25 µg/mL,[1]; [3],44.3%
same,activation at 25 µg/mL,[1]; [4],0%
same,activation at 25 µg/mL,[1]; [5],0%
same,IC50,[2]; [7],2.2 µM
same,IC50,[2]; [8],2.8 µM
"O=C(O[C@H]1CO[C@H]2[C@@H]1OC[C@H]2O[N+](=O)[O-])c1cccnc1 [Example 7b, 1.4;3.6-Dianhydro-D-glucitol 2-nicotinate 5-nitrate]",LD50 at 24 h,in vivo,> 200 mg/kg
same,Frequency of death with an intravenous dose of 200 mg/kg,female NMRI-albino mice,0/6
same,IC50,[2]; [7],20 µM
same,IC50,[2]; [8],44 µM
"O=C(O[C@H]1CO[C@H]2[C@@H]1OC[C@@H]2O[N+](=O)[O-])c1cccnc1 [Example 2b, 1.4;3.6-Dianhydro-L-iditol 2-nitrate 5-nicotinate]",activation at 25 µg/mL,[1]; [3],35.4%
same,activation at 25 µg/mL,[1]; [4],0%
same,activation at 25 µg/mL,[1]; [5],3.36%
same,LD50 at 24 h,in vivo,≥ 200 mg/kg
same,Frequency of death with an intravenous dose of 100 mg/kg,female NMRI-albino mice,0/6
same,Frequency of death with an intravenous dose of 200 mg/kg,female NMRI-albino mice,2/6
same,blood pressure Δ,narcotised guinea pigs; 0.25 mg/kg i.v.,-11.40 mm.Hg
same,blood pressure afterwards,narcotised guinea pigs; 0.25 mg/kg i.v.,47.30 ± 2.60 mm.Hg
same,blood pressure previously,narcotised guinea pigs; 0.25 mg/kg i.v.,58.70 ± 4.30 mm.Hg
same,blood pressure Δ,narcotised guinea pigs; 1.00 mg/kg i.v.,-15.60 mm.Hg
same,blood pressure afterwards,narcotised guinea pigs; 1.00 mg/kg i.v.,42.70 ± 1.80 mm.Hg
same,blood pressure previously,narcotised guinea pigs; 1.00 mg/kg i.v.,58.30 ± 2.00 mm.Hg
same,blood pressure Δ,narcotised guinea pigs; 2.50 mg/kg i.v.,-20.70 mm.Hg
same,blood pressure afterwards,narcotised guinea pigs; 2.50 mg/kg i.v.,33.00 ± 1.00 mm.Hg
same,blood pressure previously,narcotised guinea pigs; 2.50 mg/kg i.v.,53.70 ± 3.30 mm.Hg
same,blood pressure-lowering effectiveness compared with ISMN and ISDN,narcotised guinea pigs,actions similar to those of ISDN
same,IC50,[2]; [7],0.28 µM
same,IC50,[2]; [8],3.1 µM
"O=[N+]([O-])O[C@H]1CO[C@H]2[C@@H]1OC[C@@H]2Oc1ccc(Cl)cc1 [Example 1c, 5-O-(4-Chlorophenyl)-1.4;3.6-dianhydro-L-iditol 2-nitrate]",activation at 25 µg/mL,[1]; [3],19.8%
same,activation at 25 µg/mL,[1]; [4],2.89%
same,activation at 25 µg/mL,[1]; [5],12.2%
same,blood pressure Δ,narcotised guinea pigs; 0.25 mg/kg i.v.,-1.60 mm.Hg
same,blood pressure afterwards,narcotised guinea pigs; 0.25 mg/kg i.v.,59.70 ± 2.40 mm.Hg
same,blood pressure previously,narcotised guinea pigs; 0.25 mg/kg i.v.,61.30 ± 2.60 mm.Hg
same,blood pressure Δ,narcotised guinea pigs; 1.00 mg/kg i.v.,-15.00 mm.Hg
same,blood pressure afterwards,narcotised guinea pigs; 1.00 mg/kg i.v.,46.90 ± 1.20 mm.Hg
same,blood pressure previously,narcotised guinea pigs; 1.00 mg/kg i.v.,61.90 ± 1.90 mm.Hg
same,blood pressure Δ,narcotised guinea pigs; 2.50 mg/kg i.v.,-23.00 mm.Hg
same,blood pressure afterwards,narcotised guinea pigs; 2.50 mg/kg i.v.,37.60 ± 1.00 mm.Hg
same,blood pressure previously,narcotised guinea pigs; 2.50 mg/kg i.v.,60.60 ± 1.80 mm.Hg
same,IC50,[2]; [7],0.14 µM
same,IC50,[2]; [8],3.18 µM
